# Calls of active or inactive are those of the source. The rule behind the calls is not given here.
# Legend:
# [1] = molecular target: T1, Peroxisome proliferator-activated receptor alpha (Mus musculus) (UniProt P23204); experiment: In vivo agonist activity at PPARalpha in high fat diet-induced nonalcoholic steatohepatitis C57BL/6J mouse model assessed as increase in ACOX1 mRNA expression in liver administered at 3 mg/kg, po and measured after 24 hrs by quantitative real time PCR analysis; assay type: functional, organism-based
# T1 sequence (whole entry): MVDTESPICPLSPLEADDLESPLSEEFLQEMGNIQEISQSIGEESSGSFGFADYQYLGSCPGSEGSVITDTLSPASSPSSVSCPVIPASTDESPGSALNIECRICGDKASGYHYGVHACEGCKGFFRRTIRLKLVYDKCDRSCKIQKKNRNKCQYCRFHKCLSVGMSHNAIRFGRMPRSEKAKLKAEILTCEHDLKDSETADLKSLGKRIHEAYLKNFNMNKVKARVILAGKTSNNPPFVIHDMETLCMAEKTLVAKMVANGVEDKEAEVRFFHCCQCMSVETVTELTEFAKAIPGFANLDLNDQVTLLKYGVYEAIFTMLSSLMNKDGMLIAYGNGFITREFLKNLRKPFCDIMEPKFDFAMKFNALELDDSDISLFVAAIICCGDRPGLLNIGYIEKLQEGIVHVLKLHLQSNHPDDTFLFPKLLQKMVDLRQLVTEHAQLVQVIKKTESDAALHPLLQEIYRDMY
# [2] = molecular target: T2, Peroxisome proliferator-activated receptor alpha (Homo sapiens, UniProt Q07869); experiment: Agonist activity at Gal4-fused human PPARalpha co-expressed with RXRalpha in monkey CV1 cells assessed as PPRE transcriptional activation incubated for 45 hrs by luciferase reporter gene assay; assay type: cell-based, CV-1
# T2 sequence (Q07869 whole entry): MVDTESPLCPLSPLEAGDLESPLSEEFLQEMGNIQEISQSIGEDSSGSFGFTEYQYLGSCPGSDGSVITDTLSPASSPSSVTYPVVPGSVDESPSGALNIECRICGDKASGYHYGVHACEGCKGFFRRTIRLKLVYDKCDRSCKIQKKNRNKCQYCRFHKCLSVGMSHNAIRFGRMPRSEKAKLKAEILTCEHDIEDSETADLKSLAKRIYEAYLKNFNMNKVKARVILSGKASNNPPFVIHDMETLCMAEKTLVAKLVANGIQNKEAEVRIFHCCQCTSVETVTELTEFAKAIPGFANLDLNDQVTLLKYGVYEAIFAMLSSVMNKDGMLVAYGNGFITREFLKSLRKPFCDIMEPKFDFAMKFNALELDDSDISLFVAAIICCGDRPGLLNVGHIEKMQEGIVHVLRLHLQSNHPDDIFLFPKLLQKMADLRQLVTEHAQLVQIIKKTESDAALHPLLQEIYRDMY
# [3] = molecular target: T3, Peroxisome proliferator-activated receptor delta (Homo sapiens, UniProt Q03181); experiment: Agonist activity at Gal4-fused human PPARdelta expressed in monkey CV1 cells assessed as receptor transactivation incubated for 45 hrs by luciferase reporter gene assay; assay type: cell-based, CV-1
# T3 sequence (Q03181 whole entry): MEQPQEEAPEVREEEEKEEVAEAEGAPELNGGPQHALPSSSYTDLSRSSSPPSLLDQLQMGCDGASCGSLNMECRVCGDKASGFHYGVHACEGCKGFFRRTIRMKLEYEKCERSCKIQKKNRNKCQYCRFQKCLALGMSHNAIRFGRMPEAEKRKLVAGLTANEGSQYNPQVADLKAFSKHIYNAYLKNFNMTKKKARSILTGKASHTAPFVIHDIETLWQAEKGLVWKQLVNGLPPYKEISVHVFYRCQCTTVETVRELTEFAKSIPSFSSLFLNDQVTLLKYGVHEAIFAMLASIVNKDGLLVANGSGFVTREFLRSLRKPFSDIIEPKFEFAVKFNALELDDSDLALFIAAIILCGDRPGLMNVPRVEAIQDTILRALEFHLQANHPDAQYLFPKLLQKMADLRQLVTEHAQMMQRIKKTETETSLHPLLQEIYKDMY
# [4] = tested on: Mus musculus; experiment: Upregulation of PPARalpha expression in liver of high fat diet-induced nonalcoholic steatohepatitis C57BL/6J mouse model at 3 mg/kg, po and measured after 24 hrs by quantitative real time PCR analysis; assay type: functional, organism-based
# [5] = molecular target: T1, Peroxisome proliferator-activated receptor alpha (Mus musculus); experiment: In vivo agonist activity at PPARalpha in high fat diet-induced nonalcoholic steatohepatitis C57BL/6J mouse model assessed as increase in Cyp4a3 mRNA expression in liver administered at 3 mg/kg, po and measured after 24 hrs by quantitative real time PCR analysis; assay type: functional, organism-based
# [6] = molecular target: T1, Peroxisome proliferator-activated receptor alpha (Mus musculus); experiment: In vivo agonist activity at PPARalpha in high fat diet-induced nonalcoholic steatohepatitis C57BL/6J mouse model assessed as increase in LPL mRNA expression in liver administered at 3 mg/kg, po and measured after 24 hrs by quantitative real time PCR analysis; assay type: functional, organism-based
# [7] = molecular target: T1, Peroxisome proliferator-activated receptor alpha (Mus musculus); experiment: In vivo agonist activity at PPARalpha in high fat diet-induced nonalcoholic steatohepatitis C57BL/6J mouse model assessed as trans-repression of ApoC3 mRNA expression in liver administered at 3 mg/kg, po and measured after 24 hrs by quantitative real time PCR analysis; assay type: functional, organism-based
# [8] = tested on: Mus musculus; experiment: Hypolipidemic activity in high fat diet-induced nonalcoholic steatohepatitis C57BL/6J mouse model assessed as reduction in plasma triglyceride level at 3 mg/kg, po administered via gavage and measured after 24 hrs; assay type: functional
# [9] = molecular target: T4, Peroxisome proliferator-activated receptor gamma (Homo sapiens, UniProt P37231); experiment: Agonist activity at Gal4-fused human PPARgamma expressed in monkey CV1 cells assessed as receptor transactivation incubated for 45 hrs by luciferase reporter gene assay; assay type: cell-based, CV-1
# T4 sequence (P37231 whole entry): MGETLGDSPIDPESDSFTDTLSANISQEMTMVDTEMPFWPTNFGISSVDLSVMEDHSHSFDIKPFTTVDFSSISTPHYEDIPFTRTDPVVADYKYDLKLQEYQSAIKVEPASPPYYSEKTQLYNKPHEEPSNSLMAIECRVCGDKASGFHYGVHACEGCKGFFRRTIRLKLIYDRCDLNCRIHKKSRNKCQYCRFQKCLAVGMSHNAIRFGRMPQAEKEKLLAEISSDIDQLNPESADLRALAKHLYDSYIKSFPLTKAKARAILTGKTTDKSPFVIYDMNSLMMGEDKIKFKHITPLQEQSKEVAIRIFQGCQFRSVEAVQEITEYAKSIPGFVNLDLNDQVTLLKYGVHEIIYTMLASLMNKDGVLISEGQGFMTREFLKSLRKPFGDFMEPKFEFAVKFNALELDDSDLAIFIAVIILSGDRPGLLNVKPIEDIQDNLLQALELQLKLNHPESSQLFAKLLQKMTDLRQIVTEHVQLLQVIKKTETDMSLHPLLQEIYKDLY
# [10] = molecular target: T5, Peroxisome proliferator-activated receptor alpha (Mus musculus, UniProt P23204); experiment: Agonist activity at Gal4-fused mouse PPARalpha co-expressed with RXRalpha in monkey CV1 cells assessed as PPRE transcriptional activation incubated for 45 hrs by luciferase reporter gene assay; assay type: cell-based, CV-1
# T5 sequence (P23204 whole entry): T1 sequence (whole entry)
# [11] = molecular target: T1, Peroxisome proliferator-activated receptor alpha (Mus musculus); experiment: In vivo agonist activity at PPARalpha in high fat diet-induced nonalcoholic steatohepatitis C57BL/6J mouse model assessed as increase in Cyp4a3 mRNA expression in liver administered at 3 mg/kg, po administered once daily for 7 days by quantitative real time PCR analysis; assay type: functional, organism-based; conditions: time 7.0 day
# [12] = molecular target: T1, Peroxisome proliferator-activated receptor alpha (Mus musculus); experiment: In vivo agonist activity at PPARalpha in high fat diet-induced nonalcoholic steatohepatitis C57BL/6J mouse model assessed as increase in mCPT1A gene expression in liver at 3 mg/kg, po administered once daily for 7 days and measured at >3 days by quantitative real time PCR analysis; assay type: functional, organism-based; conditions: time day >3
# [13] = Toxicity in high fat diet-induced nonalcoholic steatohepatitis C57BL/6J mouse model assessed as increase in plasma glucose level at 3 mg/kg, po administered once daily for 7 days and measured after 4 days; assay type: organism-based; conditions: in vivo, 96 h, time 4 day
# [14] = molecular target: T1, Peroxisome proliferator-activated receptor alpha (Mus musculus); experiment: In vivo agonist activity at PPARalpha in high fat diet-induced nonalcoholic steatohepatitis C57BL/6J mouse model assessed as increase in LPL mRNA expression in liver administered at 3 mg/kg, po administered once daily for 7 days by quantitative real time PCR analysis; assay type: functional, organism-based; conditions: time 7.0 day
# [15] = molecular target: T1, Peroxisome proliferator-activated receptor alpha (Mus musculus); experiment: In vivo agonist activity at PPARalpha in high fat diet-induced nonalcoholic steatohepatitis C57BL/6J mouse model assessed as increase in mACADM gene expression in liver at 3 mg/kg, po administered once daily for 7 days by quantitative real time PCR analysis; assay type: functional, organism-based; conditions: time 7.0 day
Compound,Activity [1],EC50 [2],EC50 [3],Activity [5],Activity [6],Activity [7],EC50 [9],EC50 [10],Activity [11],Activity [12],Activity [14],Activity [15],Activity [4],inhibition in vivo at 3 mg/kg [8],Activity [13]
COc1ccc(Cn2c(CCCc3ccc(OC(C)(C)C(=O)O)cc3)nn(Cc3ccc(C(C)(C)C)cc3)c2=O)cc1,Active,–,–,Active,–,Active,–,–,–,–,–,–,Active,≥ 50%,–
COc1cc(Cn2c(CCCc3ccc(OC(C)(C)C(=O)O)cc3)nn(Cc3ccc(C)cc3)c2=O)cc(OC)c1OC,Active,–,> 10 µM,Active,Active,Active,> 10 µM,–,–,–,–,–,Active,≥ 50%,–
COc1cccc(Cn2c(CCCc3ccc(OC(C)(C)C(=O)O)cc3)nn(Cc3ccc(C)cc3)c2=O)c1,Active,1 nM,> 10 µM,Active,Active,Active,> 10 µM,–,–,–,–,–,Active,≥ 50%,–
Cc1ccc(Cn2nc(CCCc3ccc(OC(C)(C)C(=O)O)cc3)n(Cc3ccccc3)c2=O)cc1,Active,–,> 10 µM,Active,Active,Active,> 10 µM,–,–,–,–,–,Active,≥ 50%,–
CC(C)(Sc1ccc(CCN(CCCCC2CCCCC2)C(=O)NC2CCCCC2)cc1)C(=O)O [GW7647],inactive,–,–,inactive,–,–,–,–,Active,Active,inactive,Active,–,≥ 50%,Toxic

# The next lines start with results.
Activity [1],EC50 [2],EC50 [3],Activity [5],Activity [6],Activity [7],EC50 [9],EC50 [10],Activity [11],Activity [12],Activity [14],Activity [15],Compound,Activity [4],inhibition in vivo at 3 mg/kg [8],Activity [13]
Active,0.95 nM,> 10 µM,Active,Active,Active,> 10 µM,–,–,–,–,–,Cc1ccc(Cn2nc(CCCc3ccc(OC(C)(C)C(=O)O)cc3)n(Cc3ccc(F)cc3)c2=O)cc1,Active,≥ 50%,–
inactive,0.85 nM,> 10 µM,inactive,Active,inactive,> 10 µM,–,–,–,–,–,Cc1ccc(Cn2nc(CCCc3ccc(OC(C)(C)C(=O)O)cc3)n(Cc3ccc(C)cc3)c2=O)cc1,Active,≥ 50%,–
Active,12 nM,> 10 µM,Active,Active,Active,> 10 µM,20 nM,–,–,–,–,C=Cc1ccc(Cn2nc(CCCc3ccc(OC(C)(C)C(=O)O)cc3)n(Cc3ccc(C)cc3)c2=O)cc1,Active,≥ 50%,–
Active,1 nM,> 10 µM,Active,Active,Active,> 10 µM,10 nM,–,–,–,–,Cc1ccc(Cn2nc(CCCc3ccc(OC(C)(C)C(=O)O)cc3)n(Cc3ccc(Cl)cc3)c2=O)cc1,Active,≥ 50%,–
